From article PMC6937593, “Anti-metastatic Inhibitors of Lysyl Oxidase (LOX): Design and Structure–Activity Relationships” (Journal of Medicinal Chemistry, 2019)

Key:
[1] = biological target: T1, DAO (Sus scrofa, UniProt Q9TRC7); test: biochemical; details: n = 2 individual values
T1 construct: purchased Sigma
T1 sequence (Q9TRC7 25-755): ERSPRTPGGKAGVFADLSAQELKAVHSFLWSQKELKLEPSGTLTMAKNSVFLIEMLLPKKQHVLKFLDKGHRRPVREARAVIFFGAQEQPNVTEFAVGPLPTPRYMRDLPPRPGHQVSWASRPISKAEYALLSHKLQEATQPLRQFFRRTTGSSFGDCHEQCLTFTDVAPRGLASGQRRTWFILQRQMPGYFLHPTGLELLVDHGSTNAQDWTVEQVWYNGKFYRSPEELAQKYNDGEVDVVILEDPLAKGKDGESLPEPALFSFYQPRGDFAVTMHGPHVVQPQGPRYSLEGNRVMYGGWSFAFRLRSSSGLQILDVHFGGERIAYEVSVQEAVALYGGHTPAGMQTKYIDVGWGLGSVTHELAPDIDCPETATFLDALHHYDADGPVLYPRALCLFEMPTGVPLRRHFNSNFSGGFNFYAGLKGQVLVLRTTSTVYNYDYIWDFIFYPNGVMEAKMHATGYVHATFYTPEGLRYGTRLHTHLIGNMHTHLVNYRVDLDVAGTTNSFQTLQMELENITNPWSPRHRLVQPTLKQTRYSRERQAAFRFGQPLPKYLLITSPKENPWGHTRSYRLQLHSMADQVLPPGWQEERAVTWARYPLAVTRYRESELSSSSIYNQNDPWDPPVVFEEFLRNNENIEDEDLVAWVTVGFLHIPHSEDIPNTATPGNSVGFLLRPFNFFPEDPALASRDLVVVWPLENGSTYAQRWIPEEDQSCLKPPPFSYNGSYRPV
Description: (§1) All amine oxidase assays were performed with concentrations as above. MAO-A and MAO-B enzymes were purchased from Promega and Sigma, respectively. The catalytic activity of MAO-A and MAO-B was determined using the Promega MAO-Glo assay kit (substrate included), with clorgyline and deprenyl as positive controls, respectively. DAO was purchased from Sigma and the catalytic activity was determined using the Promega ROS-Glo assay kit, with aminoguanidine as the positive control.

[2] = biological target: T2, MAO-B (Homo sapiens, UniProt P27338); test: MAO-B assay (MAO-Glo); format: biochemical; details: n = 2 individual values
T2 construct: purchased Sigma
T2 sequence (P27338 1-520): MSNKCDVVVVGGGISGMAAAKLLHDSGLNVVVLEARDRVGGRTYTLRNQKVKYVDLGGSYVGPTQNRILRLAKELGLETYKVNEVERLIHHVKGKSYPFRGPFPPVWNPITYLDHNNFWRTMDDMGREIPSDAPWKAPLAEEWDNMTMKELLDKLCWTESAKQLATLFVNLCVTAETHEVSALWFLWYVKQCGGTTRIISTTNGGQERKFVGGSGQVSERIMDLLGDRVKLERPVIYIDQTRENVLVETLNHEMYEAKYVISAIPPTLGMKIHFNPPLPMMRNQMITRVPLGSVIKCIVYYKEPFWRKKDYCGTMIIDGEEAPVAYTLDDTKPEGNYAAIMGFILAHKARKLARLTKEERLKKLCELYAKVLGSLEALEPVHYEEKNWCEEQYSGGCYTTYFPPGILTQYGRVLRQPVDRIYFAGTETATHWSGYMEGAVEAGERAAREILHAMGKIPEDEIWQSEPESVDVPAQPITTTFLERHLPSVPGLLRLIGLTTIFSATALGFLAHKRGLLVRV
Description: as §1

[3] = Caco-2 permeability assay; format: in vitro ADME; details: human
[4] = biological target: T3, LOX (Sus scrofa, UniProt P45845); test: LOX enzyme activity assay (HRP-coupled fluorescent, cadaverine substrate); format: biochemical, pig;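 also: LOX isolated from porcine skin, nine-point dilution series starting at 100 µM, 20 min preincubation with enzyme, BAPN serving as positive control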
T3 construct: LOX enzyme was extracted from pig skin by the method of Shackleton and Hulmes; from tissue; host or cells: pig skin
T3 sequence (P45845 1-249): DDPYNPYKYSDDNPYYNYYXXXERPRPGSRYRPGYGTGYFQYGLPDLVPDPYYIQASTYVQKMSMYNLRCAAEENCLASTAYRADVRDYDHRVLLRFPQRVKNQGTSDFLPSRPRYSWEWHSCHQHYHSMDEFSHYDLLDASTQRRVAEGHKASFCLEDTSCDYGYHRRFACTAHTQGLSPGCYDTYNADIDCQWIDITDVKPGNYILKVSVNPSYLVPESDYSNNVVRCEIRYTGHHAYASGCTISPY
Description: LOX enzyme was extracted from pig skin by the method of Shackleton and Hulmes.[24] LOX catalytic activity was determined using a horseradish peroxidase (HRP)-coupled fluorescent assay previously described,[19] with cadaverine hydrochloride as a substrate, BAPN as positive control, and a preincubation time of 20 min with nine dilutions from a top concentration of 100 μM.

[5] = In vivo PK in mice; parameters: species or system mouse; details: for AUC(PO) / Cmax: mouse plasma, single oral gavage dose 50 mg/kg
Description: Female BALB/c or CD1 mice (Charles River Laboratories) at 6 weeks of age were used for the PK analyses. The mice were dosed orally by gavage (50 mg/kg in dimethyl sulfoxide (DMSO)/water 1:19 v/v; n = 21) or intravenously in the tail vein (10 mg/kg in DMSO/Tween20/saline 10:1:89 v/v/v; n = 24). […] Three mice were used per time point per route. They were placed under halothane or isoflurane anesthesia, and blood for plasma preparation was taken by terminal cardiac puncture into heparinized syringes. Plasma samples were snap-frozen in liquid nitrogen and then stored at −80 °C prior to analysis.

[6] = MLM stability assay; format: in vitro ADME, mouse; details: percentage of compound remaining after 30 min; 10 μM
Description: Mouse liver microsomes (BALB/c) were purchased from Tebu-bio, and the assay was performed by methods previously described.[19] Inhibitors at 10 μM concentration incubated with the microsomes were assessed at 0, 15, and 30 min. Control samples containing no microsomes and no cofactors were also assessed at 0 and 30 min. Samples were extracted by protein precipitation and centrifugation for 20 min in a refrigerated centrifuge (4 °C) at 3700 rpm. The supernatant was analyzed by LCMS/MS for % metabolized over time.

CS(=O)(=O)c1cc(-c2ccccc2)cc(S(=O)(=O)c2ccc(CN)s2)c1 [9f]
IC50 [1]: > 100 µM

Cc1ccc(-c2cc(S(=O)(=O)c3ccc(CN)s3)ccc2S(C)(=O)=O)cc1.Cl [9l, (5-((4′-Methyl-6-(methylsulfonyl)-[1,1′-biphenyl]-3-yl)sulfonyl)thiophen-2-yl)methanamine Hydrochloride]
IC50 [2]: > 100 µM
Papp A→B ([3]; A → B): 18 ×10⁻⁶ cm/s
Papp B→A ([3]; B → A): 25 ×10⁻⁶ cm/s
IC50 [1]: > 100 µM
LOX inhibition (in words) [4]: sub-micromolar
AUC(PO) [5]: 12 µM·h
Cmax [5]: 9.4 µM
F (oral bioavailability) ([5]; mouse, PO 50 mg/kg vs IV 10 mg/kg): 74%
CL(IV) ([5]; mouse, intravenous 10 mg/kg): 106 mL/min/kg
t1/2(IV) ([5]; mouse, intravenous 10 mg/kg): 24 min
MLM stability (%) [6]: 95%

CC(C)(C)Oc1cc(S(C)(=O)=O)cc(S(=O)(=O)c2ccc(CN)s2)c1 [9b, (5-((3-(tert-Butoxy)-5-(methylsulfonyl)phenyl)sulfonyl)thiophen-2-yl)methanamine]
AUC(PO) [5]: 2.3 µM·h
Cmax [5]: 6.3 µM
MLM stability (%) [6]: 67%
